# According to patent US20220096450A1, “Compounds and Methods for Treating or Preventing Heart Failure” (DREXEL UNIVERSITY, priority 2019, published 2022):
# Target: SQOR (Homo sapiens, UniProt Q9Y6N5)
# Assay: DCIP endpoint assay of SQOR activity
# Format: biochemical
# Conditions: Table 1, SAR of Set A/A′ and Set B; read-out: IC50
# Experimental: The assay is based on the ability of reduced CoQ1, which is produced in the SQOR reaction, to nonenzymically reduce 2,6-dichloroindiphenol (DCIP) (Δεox-red=20 mM−1 cm−1 at 600 nm). Reaction mixtures containing SQOR, substrates (H2S, sulfite, CoQ1) and various concentrations of an inhibitor are incubated in 96-well plates for 60 s. The reactions are quenched by addition of formaldehyde and N-ethylmaleimide to denature SQOR and consume unreacted H2S, respectively, and are then incubated for 10 min prior to addition of DCIP. The absorbance at 600 nm is read 30 s after DCIP addition by using a BioTek Synergy 2 plate reader.
# Chain of SQOR (Q9Y6N5 whole entry): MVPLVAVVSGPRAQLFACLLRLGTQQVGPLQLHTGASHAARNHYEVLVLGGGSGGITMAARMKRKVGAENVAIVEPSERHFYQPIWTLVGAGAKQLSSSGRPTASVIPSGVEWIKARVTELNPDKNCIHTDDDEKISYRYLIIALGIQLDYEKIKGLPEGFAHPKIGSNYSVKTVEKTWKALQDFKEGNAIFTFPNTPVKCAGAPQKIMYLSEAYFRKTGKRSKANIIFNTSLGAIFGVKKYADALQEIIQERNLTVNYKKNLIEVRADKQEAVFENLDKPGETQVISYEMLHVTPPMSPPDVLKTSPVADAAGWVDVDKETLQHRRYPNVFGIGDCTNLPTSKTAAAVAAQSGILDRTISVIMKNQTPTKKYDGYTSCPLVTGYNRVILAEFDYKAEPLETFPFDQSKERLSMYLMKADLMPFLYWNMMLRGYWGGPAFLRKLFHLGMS
row,SMILES,IC50 [nM]
1,"O=[N+]([O-])c1cc(Cl)c(-n2cccc2)cc1N1CCCCC1 [Compound 2, 1-(4-chloro-2-nitro-5-(1H-pyrrol-1-yl)phenyl)piperidine]",25
2,"COc1nc2c(c(-c3ccccc3)c1C#N)Cc1ccccc1-2 [Compound 4, 2-methoxy-4-phenyl-5H-indeno[1,2-b]pyridine-3-carbonitrile]",21
3,"CCOc1nc2c(c(-c3ccc(OC)cc3)c1C#N)Cc1ccccc1-2 [Compound 5, 2-ethoxy-4-(4-methoxyphenyl)-5H-indeno[1,2-b]pyridine-3-carbonitrile]",260
4,"COc1nc2c(c(-c3ccccc3Cl)c1C#N)Cc1ccccc1-2 [Compound 6, 4-(2-chlorophenyl)-2-methoxy-5H-indeno[1,2-b]pyridine-3-carbonitrile]",340
5,"COc1nc2c(c(-c3ccc(SC)cc3)c1C#N)Cc1ccccc1-2 [Compound 7, 2-methoxy-4-(4-(methylthio)phenyl)-5H-indeno[1,2-b]pyridine-3-carbonitrile]",880
6,"COc1nc2c(c(-c3ccc(C(F)(F)F)cc3)c1C#N)Cc1ccccc1-2 [Compound 8, 2-methoxy-4-(4-(trifluoromethyl)phenyl)-5H-indeno[1,2-b]pyridine-3-carbonitrile]",1100
7,"COc1nc2c(c(-c3cc(Cl)ccc3F)c1C#N)Cc1ccccc1-2 [Compound 9, 4-(5-chloro-2-fluorophenyl)-2-methoxy-5H-indeno[1,2-b]pyridine-3-carbonitrile]",3500
8,"COc1cccc(-c2c(C#N)c(OC)nc3c2Cc2ccccc2-3)c1 [Compound 10, 2-methoxy-4-(3-methoxyphenyl)-5H-indeno[1,2-b]pyridine-3-carbonitrile]",6100
9,"CCOC(=O)COc1nc(-c2ccccc2)cc(-c2ccccc2)c1C#N [Compound 11, ethyl 2-((3-cyano-4,6-diphenylpyridin-2-yl)oxy)acetate]",30
10,"CCOc1nc(-c2ccccc2)cc(-c2ccc3c(c2)OCO3)c1C#N [Compound 12, 4-(benzo[d][1,3]dioxol-5-yl)-2-ethoxy-6-phenylnicotinonitrile]",890
11,"CCOc1nc(-c2ccccc2)cc(-c2ccccc2)c1C#N [Compound 13, 2-ethoxy-4,6-diphenylnicotinonitrile]",19
12,"N#Cc1c(-c2ccccc2)cc(-c2ccc(F)cc2)nc1N [Compound 14, 2-amino-6-(4-fluorophenyl)-4-phenylnicotinonitrile]",600
13,"Cc1ccc(C)c(-c2cc(-c3ccc4c(c3)OCO4)c(C#N)c(N)n2)c1 [Compound 15, 2-amino-4-(benzo[d][1,3]dioxol-5-yl)-6-(2,5-dimethylphenyl)nicotinonitrile]",1100
14,"Cc1ccc(-c2cc(-c3ccccc3)c(C#N)c(N)n2)cc1 [Compound 16, 2-amino-4-phenyl-6-(p-tolyl)nicotinonitrile]",11000
15,"N#Cc1c(-c2ccccc2)cc(-c2ccc(O)cc2)nc1N [Compound 17, 2-amino-6-(4-hydroxyphenyl)-4-phenylnicotinonitrile]",12000
16,"Cc1ccc(-c2cc(-c3ccc4c(c3)OCO4)c(C#N)c(N)n2)cc1C [Compound 18, 2-amino-4-(benzo[d][1,3]dioxol-5-yl)-6-(3,4-dimethylphenyl)nicotinonitrile]",14000
17,"O=[N+]([O-])c1cc(Cl)c(-n2cccc2)cc1N1CCOCC1 [Compound 19, 4-(4-chloro-2-nitro-5-(1H-pyrrol-1-yl)phenyl)morpholine]",440
18,"O=[N+]([O-])c1cc(Cl)c(-n2cccc2)cc1N1CCCC1 [Compound 20, 1-(2-chloro-4-nitro-5-(pyrrolidin-1-yl)phenyl)-1H-pyrrole]",460

# Same assay, conditions: Table 2, SAR of Set C; read-out: IC50
row,SMILES,IC50 [nM]
1,"Cc1ccc(Sc2cc(N3CCOCC3)c(C)cc2[N+](=O)[O-])cc1 [Compound 3, 4-(2-methyl-4-nitro-5-(p-tolylthio)phenyl)morpholine]",8
2,"Cc1cc([N+](=O)[O-])c(Sc2ccc(Cl)cc2)cc1C1SCCS1 [Compound 32, 2-(5-((4-chlorophenyl)thio)-2-methyl-4-nitrophenyl)-1,3-dithiolane]",24
3,"Cc1cc([N+](=O)[O-])c(S(=O)(=O)c2ccccc2)cc1C(=O)c1ccccc1 [Compound 33, (2-methyl-4-nitro-5-(phenylsulfonyl)phenyl)(phenyl)methanone]",152
4,"COc1ccc(Sc2ccc(C)cc2)c([N+](=O)[O-])c1 [Compound 34, (4-methoxy-2-nitrophenyl)(p-tolyl)sulfane]",4900

# Same assay, conditions: Table 3; read-out: IC50
row,SMILES,IC50 [nM]
1,"Cc1cccnc1-c1cc(-c2ccc(F)cc2)c(C#N)c(=O)n1CCN1CCOCC1 [4-(4-fluorophenyl)-1,2-dihydro-6-(3-methylpyridin-2-yl)-1-(2-morpholinoethyl)-2-oxopyridine-3-carbonitrile]",14000
2,"Cc1cccnc1-c1cc(-c2ccc(F)cc2)c(C#N)c(=O)n1Cc1cccnc1 [4-(4-fluorophenyl)-1,2-dihydro-6-(3-methylpyridin-2-yl)-2-oxo-1-((pyridin-3-yl)methyl)pyridine-3-carbonitrile]",10000
3,COc1nc(-c2cccc(O)c2)cc(-c2ccc(F)cc2)c1C#N [4-(4-fluorophenyl)-6-(3-hydroxyphenyl)-2-methoxypyridine-3-carbonitrile],230
4,COc1nc(-c2ccccn2)cc(-c2ccco2)c1C#N [4-(Furan-2-yl)-2-methoxy-6-(pyridin-2-yl)pyridine-3-carbonitrile],680
5,"CCOc1nc(-c2ccccc2)nc(-c2ccccc2)c1C#N [4-Ethoxy-2,6-diphenylpyrimidine-5-carbonitrile]",120
6,COc1nc(-c2ccccc2N)cc(-c2ccc(F)cc2)c1C#N [6-(2-Aminophenyl)-4-(4-fluorophenyl)-2-methoxypyridine-3-carbonitrile],230
7,CCOC(=O)N1CCN(CCOc2nc(-c3ncccc3C)cc(-c3ccc(F)cc3)c2C#N)CC1 [Ethyl 4-(2-(3-cyano-4-(4-fluorophenyl)-6-(3-methylpyridin-2-yl)pyridin-2-yloxy)ethyl)piperazine-1-carboxylate],230
8,Cc1cccnc1-c1cc(-c2ccc(F)cc2)c(C#N)c(OCCN2CCN(C(=O)OC(C)C)CC2)n1 [Isopropyl 4-(2-(3-cyano-4-(4-fluorophenyl)-6-(3-methylpyridin-2-yl)pyridin-2-yloxy)ethyl)piperazine-1-carboxylate],120
9,COC(=O)COCCOc1nc(-c2ncccc2C)cc(-c2ccc(F)cc2)c1C#N [Methyl 2-(3-cyano-4-(4-fluorophenyl)-6-(3-methylpyridin-2-yl)pyridin-2-yloxy) 2-(2-methoxyethoxy) acetate],96
10,COC(=O)N1CCN(CCOc2nc(-c3ncccc3C)cc(-c3ccc(F)cc3)c2C#N)CC1 [Methyl 4-(2-(3-cyano-4-(4-fluorophenyl)-6-(3-methylpyridin-2-yl)pyridin-2-yloxy)ethyl)piperazine-1-carboxylate],540
11,CC(=O)NCCOc1nc(-c2ccccn2)cc(-c2ccc(F)cc2)c1C#N [N-(2-(3-Cyano-4-(4-fluorophenyl)-6-(pyridin-2-yl)pyridin-2-yloxy)ethyl)acetamide],1900
12,Cc1cccnc1-c1cc(-c2ccc(F)cc2)c(C#N)c(OCCN2CCN(C(=O)OC(C)(C)C)CC2)n1 [tert-Butyl 4-(2-(3-cyano-4-(4-fluorophenyl)-6-(3-methylpyridin-2-yl)pyridin-2-yloxy)ethyl)piperazine-1-carboxylate],43

# Same assay, conditions: read-out: IC50 against SQOR
row,SMILES,IC50 [nM]
1,"CCOc1nc2c(c(-c3ccc(F)cc3)c1C#N)Cc1ccccc1-2 [Compound 1, 2-ethoxy-4-(4-fluorophenyl)-5H-indeno[1,2-b]pyridine-3-carbonitrile]",9.4
